Assay results: PubChem BioAssay AID248 (DTP/NCI, 2004)
“And” between values parts separate entries of the source, which are not always exact repeats. Equal values may be shown once. Inconclusive results and toxic doses are left out. Rule as the data show it: active = T/C of 150% or more; inactive = T/C below 125%.

Tested on: L1210 leukemia ip in BDF1 mice, survival T/C
Assay: NCI In Vivo Anticancer Drug Screen. Data for tumor model L1210 Leukemia (intraperitoneal) in B6D2F1 (BDF1) mice
Settings: endpoint: mean survival time, higher = longer survival
Summary of the method: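 Survival endpoint. Drug-treated group vs vehicle group, expressed as T divided by C. Tumor passaged by transplantation.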

[1] = dose: 100.0 mg/kg/injection, schedule: Q01DX009 (ip), vehicle: Klucel (hydroxypropylcellulose) (HPC)
[2] = dose: 100.0 mg/kg/injection, schedule: Q04DX003 (ip), vehicle: Klucel (hydroxypropylcellulose) (HPC)
[3] = dose: 200.0 mg/kg/injection, schedule: Q01DX009 (ip), vehicle: Klucel (hydroxypropylcellulose) (HPC)
[4] = dose: 200.0 mg/kg/injection, schedule: Q04DX003 (ip), vehicle: Klucel (hydroxypropylcellulose) (HPC)
[5] = dose: 400.0 mg/kg/injection, schedule: Q01DX009 (ip), vehicle: Klucel (hydroxypropylcellulose) (HPC)
[6] = dose: 400.0 mg/kg/injection, schedule: Q04DX003 (ip), vehicle: Klucel (hydroxypropylcellulose) (HPC)
[7] = dose: 50.0 mg/kg/injection, schedule: Q01DX009 (ip), vehicle: Klucel (hydroxypropylcellulose) (HPC)
[8] = dose: 100.0 mg/kg/injection, schedule: Q01DX001 (ip), vehicle: carboxymethylcellulose (CMC)
[9] = dose: 200.0 mg/kg/injection, schedule: Q01DX001 (ip), vehicle: carboxymethylcellulose (CMC)
[10] = dose: 400.0 mg/kg/injection, schedule: Q01DX001 (ip), vehicle: carboxymethylcellulose (CMC)
[11] = dose: 100.0 mg/kg/injection, schedule: Q04DX003 (sc), vehicle: steriod suspending solution
[12] = dose: 200.0 mg/kg/injection, schedule: Q04DX003 (sc), vehicle: steriod suspending solution
[13] = dose: 400.0 mg/kg/injection, schedule: Q04DX003 (sc), vehicle: steriod suspending solution
[14] = dose: 100.0 mg/kg/injection, schedule: Q04DX003 (ip), vehicle: saline
[15] = dose: 100.0 mg/kg/injection, schedule: Q01DX009 (ip), vehicle: saline with Tween-80
[16] = dose: 100.0 mg/kg/injection, schedule: Q04DX003 (ip), vehicle: saline with Tween-80
[17] = dose: 200.0 mg/kg/injection, schedule: Q04DX003 (ip), vehicle: saline with Tween-80
[18] = dose: 400.0 mg/kg/injection, schedule: Q04DX003 (ip), vehicle: saline with Tween-80
[19] = dose: 50.0 mg/kg/injection, schedule: Q01DX001 (ip), vehicle: saline
[20] = dose: 100.0 mg/kg/injection, schedule: Q01DX001 (ip), vehicle: saline
[21] = dose: 200.0 mg/kg/injection, schedule: Q01DX001 (ip), vehicle: saline
[22] = dose: 400.0 mg/kg/injection, schedule: Q01DX001 (ip), vehicle: saline

Measured: T/C

CC(=O)Nc1cccc2ccc([N+](=O)[O-])cc12
inactive: [1] 96 % of control | [2] 94 % of control | [3] 98 % of control | [4] 105 % of control | [5] 98 % of control | [6] 98 % of control

CC(C)NNC(=O)c1ccccc1N
inactive: dose: 25.0 mg/kg/injection, schedule: Q01DX009 (ip), vehicle: Klucel (hydroxypropylcellulose) (HPC) 103 % of control | dose: 25.0 mg/kg/injection, schedule: Q04DX003 (ip), vehicle: Klucel (hydroxypropylcellulose) (HPC) 96 % of control | [7] 98 % of control | dose: 50.0 mg/kg/injection, schedule: Q04DX003 (ip), vehicle: Klucel (hydroxypropylcellulose) (HPC) 89 % of control | [1] 93 % of control | [2] 91 % of control | [3] 92 % of control | [4] 100 % of control | [6] 94 % of control

CCCCC1CN2CCc3cc(OC)c(OC)cc3C2CC1=O (stereo unspecified)
inactive: [7] 96 % of control and 97 % of control | [1] 89 % of control and 103 % of control | [3] 94 % of control and 96 % of control | [5] 97 % of control

CCCC(C)(O)C(C)(C)C (stereo unspecified)
inactive: [8] 106 % of control | [9] 106 % of control | [10] 90 % of control

CC(=O)OC1CCC2(C)C3=C(CCC2C1(C)C)C1(C)CCC(C(C)CCC2NC2(C)C)C1(C)CC3 (stereo unspecified)
inactive: [11] 105 % of control | [12] 101 % of control | [13] 105 % of control

CC(=O)Nc1ccc(C(=O)O)c([N+](=O)[O-])c1
inactive: dose: 100.0 mg/kg/injection, schedule: Q01DX009 (ip), vehicle: saline 100 % of control | [14] 104 % of control | dose: 200.0 mg/kg/injection, schedule: Q01DX009 (ip), vehicle: saline 94 % of control | dose: 200.0 mg/kg/injection, schedule: Q04DX003 (ip), vehicle: saline 104 % of control | dose: 400.0 mg/kg/injection, schedule: Q01DX009 (ip), vehicle: saline 93 % of control | dose: 400.0 mg/kg/injection, schedule: Q04DX003 (ip), vehicle: saline 94 % of control

CC1(N)CCC(C(C)(C)N)CC1 (stereo unspecified)
inactive: dose: 25.0 mg/kg/injection, schedule: Q01DX009 (ip), vehicle: saline with Tween-80 103 % of control | dose: 50.0 mg/kg/injection, schedule: Q01DX009 (ip), vehicle: saline with Tween-80 97 % of control | [15] 92 % of control

CCOC(=O)C(C)(CCOCc1ccccc1)NC(C)=O (stereo unspecified)
inactive: dose: 50.0 mg/kg/injection, schedule: Q01DX001 (ip), vehicle: carboxymethylcellulose (CMC) 94 % of control | [8] 96 % of control | [9] 100 % of control | [10] 91 % of control

CCCSc1ccccn1
inactive: dose: 25.0 mg/kg/injection, schedule: Q04DX003 (ip), vehicle: saline 101 % of control | dose: 50.0 mg/kg/injection, schedule: Q04DX003 (ip), vehicle: saline 93 % of control | [14] 95 % of control

Cc1ccc(Cl)cc1NC(=O)Nc1cccc2ccc(O)cc12
inactive: dose: 50.0 mg/kg/injection, schedule: Q04DX003 (ip), vehicle: saline with Tween-80 102 % of control | dose: 100.0 mg/kg/injection, schedule: Q01DX001 (ip), vehicle: saline with Tween-80 95 % of control | [15] 95 % of control and 101 % of control | dose: 100.0 mg/kg/injection, schedule: Q04DX002 (ip), vehicle: saline with Tween-80 102 % of control and 90 % of control | [16] 96 % of control | dose: 200.0 mg/kg/injection, schedule: Q01DX001 (ip), vehicle: saline with Tween-80 97 % of control | dose: 200.0 mg/kg/injection, schedule: Q01DX009 (ip), vehicle: saline with Tween-80 88 % of control and 92 % of control | dose: 200.0 mg/kg/injection, schedule: Q04DX002 (ip), vehicle: saline with Tween-80 95 % of control and 91 % of control | [17] 91 % of control | dose: 400.0 mg/kg/injection, schedule: Q01DX001 (ip), vehicle: saline with Tween-80 101 % of control | dose: 400.0 mg/kg/injection, schedule: Q01DX009 (ip), vehicle: saline with Tween-80 95 % of control and 103 % of control | dose: 400.0 mg/kg/injection, schedule: Q04DX002 (ip), vehicle: saline with Tween-80 87 % of control and 90 % of control | [18] 96 % of control

CC(=O)OCC(=O)[C@@]1(O)CC[C@H]2[C@@H]3CCC4=CC(=O)C=C[C@]4(C)[C@H]3[C@@H](O)C[C@@]21C
inactive: dose: 50.0 mg/kg/injection, schedule: Q04DX003 (sc), vehicle: steriod suspending solution 97 % of control | [11] 94 % of control | [12] 96 % of control | [13] 106 % of control

CCCCCCCC[As](=O)(O)CCCCCCCC
inactive: [19] 101 % of control | [20] 101 % of control | [21] 98 % of control | [22] 107 % of control

O=P(Oc1ccccc1)(Oc1ccccc1)C(Nc1ccccc1)c1cccnc1 (stereo unspecified)
inactive: [16] 89 % of control | [17] 103 % of control

O=C(CCCC(=O)NNC(=O)Nc1ccc(Cl)cc1)NNC(=O)Nc1ccc(Cl)cc1
inactive: [19] 93 % of control | [20] 96 % of control | [21] 100 % of control | [22] 100 % of control

CCOC(=O)NC(C)(C)CC(C)(C)C
inactive: [1] 101 % of control | [2] 108 % of control | [3] 98 % of control | [4] 94 % of control | [5] 103 % of control | [6] 97 % of control

CCOP(OCC)Oc1ccccc1
inactive: [16] 92 % of control | [17] 109 % of control | [18] 100 % of control

C=C[Si](C)(OCC)OCC
inactive: [20] 93 % of control | [21] 90 % of control | [22] 101 % of control

O=Cc1ccc(Oc2ccc([N+](=O)[O-])cc2[N+](=O)[O-])cc1
inactive: dose: 25.0 mg/kg/injection, schedule: Q01DX009 (ip), vehicle: water 96 % of control | dose: 50.0 mg/kg/injection, schedule: Q01DX009 (ip), vehicle: water 102 % of control | dose: 100.0 mg/kg/injection, schedule: Q01DX009 (ip), vehicle: water 104 % of control | dose: 200.0 mg/kg/injection, schedule: Q01DX009 (ip), vehicle: water 95 % of control | dose: 400.0 mg/kg/injection, schedule: Q01DX009 (ip), vehicle: water 98 % of control

CB1N(c2ccccc2)B(C)N(c2ccccc2)B(C)N1c1ccccc1
inactive: [2] 103 % of control | [4] 93 % of control | [6] 97 % of control

COc1ccc(C(=O)/C=C/c2ccc(OC)c(Br)c2)cc1
inactive: [2] 95 % of control | [4] 95 % of control | [6] 94 % of control
